Assay results published in US20220249525A1, “Fatty Acid Compounds for Prevention and Treatment of Neurodegenerative Disorders” (T OMEGA AS, priority 2019, published 2022).
One block for each compound: values may come before it.

Legend:
[1] = system: HCC827 cells; experiment: Mitochondria respiration assay (OCR, extracellular flux) in HCC827 cells; type: cell-based; details: compared to control
Experimental: (§1) Non-small cell lung cancer cells, HCC827 (ATCC) were cultured in RPMI-1640 Glutamax medium (Sigma-Aldrich St. Louis, Mo., USA), under conventional culture conditions. Media was supplemented with 10% Fetal Bovine Serum (FBS), 1% glutamine and 1% streptomycin/penicillin (Sigma-Aldrich). HeLaNRF1/c4 reporter cells were cultured in Dulbecco's Modified Eagle's Medium (DMEM) supplemented with 10% FBS, 2 mM L-Glutamine, 100 u/ml penicillin/streptomycin (Sigma-Aldrich,). Incubation was done at 37° C. in 5% CO2.
Mitochondria function was analyzed by measuring oxygen consumption rate (OCR) by extracellular flux analysis in a Seahorse XFe96 instrument (Agilent Seahorse XF Technologies). The measurements were performed in DADA basic media without phenol red, supplemented with L-glutamine (2 mM), pyruvate (2 mM), and sodium chloride, NaCl (32 mM) (Sigma-Aldrich). Respiratory rates were measured following sequential additions of glucose (10 mM), oligomycin, carbonyl cyanide m-chlorophenyl hydrazine (CCCP) and a mixture of rotenone (1 μM) and antimycin A (1 μM). Before carrying out the measurements for each cell model, optimizations were done for; cell number, CCCP, and oligomycin concentrations. For the HCC 827 cell model optimal conditions were; 30,000 cells/well, 0.5 μM CCCP, and 3 μM Oligomycin; and in HeLaNRF1/c4 reporter cell model; 20,000 cells/well, 1 μM CCCP and 3 μM Oligomycin. The OCR measured initially (before any additions) represented the rate ‘basal respiration.’ The addition of ATP synthase inhibitor oligomycin provided oxygen consumption independent of ATP production (‘leak activity’). Maximal respiration (also referred to as ‘respiratory capacity’) was measured upon addition of the uncoupler CCCP. […] After the extracellular flux analysis the analysis plates were washed with Phosphate Buffered Saline (PBS) and frozen at −80° C. The BCA assay (Pierce BCA protein assay kit, Thermo Fisher Scientific, Waltham, Mass. USA) was employed to measure the protein content in the wells. To evaluate the effects of the different treatments, the respiratory rates from compound-treated wells were normalized to protein content, and calculated as percentage of the average respiratory rate of the DMSO-treated control wells. All treatments were performed with 6-8 replicate wells.

[2] = system: HeLaNRF1/c4 reporter cells; experiment: Resazurin conversion assay in HeLaNRF1/c4 reporter cells; type: cell-based; details: test compounds 30 μM and 60 μM, long treatment
Experimental: as §1
Cell viability/proliferation was determined by the resazurin conversion assay. A total of 4000 cells were seeded in each of the 96-well plates in 100 μl of medium. After 3 hours of incubation, 100 μl of fresh medium with respective concentration of the desired compound or controls were added. Resazurin solution (Sigma-Aldrich) was added (10%, v/v in PBS) after 1 or 3 day treatment, followed by 3 hour incubation at 37° C. and 5% CO2. Resazurin fluorescence (excitation, 540 nm; emission, 590 nm) was measured and measurements were corrected for background signals. […] Relative viability was calculated from percent fluorescence relative to DMSO-treated control wells.
In order to investigate if some of the compounds induce metabolic adaptations involving mitochondrial biogenesis, we employed the HeLaNRF1/c4 reporter cells in which activation of the transcription factor NRF1 triggers expression of GFP. Since adaptations of mitochondrial biogenesis are known to require some days to develop, we used a relatively low dosage (30 μM and 60 μM) of the compounds, to allow longer treatment period compared to the previous short term experiments.

[3] = system: HeLaNRF1/c4 reporter cells; experiment: NRF1-regulated mitochondrial biogenesis, GFP reporter by flow cytometry; type: cell-based; details: 5 days; AICAR 250 μM or 500 μM, resveratrol 25 uM, test compounds 30 μM and 60 μM
Experimental: The HeLaNRF1/c4 reporter cells were employed to investigate effects of the modified fatty acids on NRF1-regulated mitochondrial biogenesis. The cells (250,000) were seeded in T75 flasks and incubated for 3 hours to allow attachment. The compounds were dissolved in DMSO and diluted in culture medium to provide the final concentration. DMSO at a concentration equivalent to the highest compound concentration was added to control cultures. Resveratrol and AICAR were used as positive controls. Resveratrol has not previously been tested in this reporter model, but we found it relevant to include it for purposes of experimental and mechanistic comparisons. After 3 days of treatment the media was replaced with fresh media containing the corresponding compound. On day 5, the cells were harvested and the cultures split into three fractions: One fraction was used for detection of mitoGFP expression by flow cytometry, to assess effects on NRF-1 regulated mitochondrial biogenesis. Flow cytometry analysis was performed as previously described. Another fraction was used for extraction of RNA and subsequent gene expression analysis using quantitative PCR (see below). The last fraction was employed to investigate effects on mitochondrial respiratory function by extracellular flux analysis (described above). The experiment was replicated three times. […]

[4] = system: HeLaNRF1/c4 reporter cells; experiment: Mitochondria respiration assay (OCR) in HeLaNRF1/c4 reporter cells after 5 days; type: cell-based
Experimental: Mitochondria function was analyzed by measuring oxygen consumption rate (OCR) by extracellular flux analysis in a Seahorse XFe96 instrument (Agilent Seahorse XF Technologies). The measurements were performed in DADA basic media without phenol red, supplemented with L-glutamine (2 mM), pyruvate (2 mM), and sodium chloride, NaCl (32 mM) (Sigma-Aldrich). Respiratory rates were measured following sequential additions of glucose (10 mM), oligomycin, carbonyl cyanide m-chlorophenyl hydrazine (CCCP) and a mixture of rotenone (1 μM) and antimycin A (1 μM). Before carrying out the measurements for each cell model, optimizations were done for; cell number, CCCP, and oligomycin concentrations. […] The OCR measured initially (before any additions) represented the rate ‘basal respiration.’ The addition of ATP synthase inhibitor oligomycin provided oxygen consumption independent of ATP production (‘leak activity’). Maximal respiration (also referred to as ‘respiratory capacity’) was measured upon addition of the uncoupler CCCP. […] To evaluate the effects of the different treatments, the respiratory rates from compound-treated wells were normalized to protein content, and calculated as percentage of the average respiratory rate of the DMSO-treated control wells. […]

[5] = system: HeLaNRF1/c4 reporter cells; experiment: Gene expression (qPCR) in HeLaNRF1/c4 reporter cells; type: cell-based; details: long-term treatment, vs control
Experimental: The HeLaNRF1/c4 reporter cells were employed to investigate effects of the modified fatty acids on NRF1-regulated mitochondrial biogenesis. The cells (250,000) were seeded in T75 flasks and incubated for 3 hours to allow attachment. The compounds were dissolved in DMSO and diluted in culture medium to provide the final concentration. DMSO at a concentration equivalent to the highest compound concentration was added to control cultures. Resveratrol and AICAR were used as positive controls. Resveratrol has not previously been tested in this reporter model, but we found it relevant to include it for purposes of experimental and mechanistic comparisons. After 3 days of treatment the media was replaced with fresh media containing the corresponding compound. On day 5, the cells were harvested and the cultures split into three fractions: One fraction was used for detection of mitoGFP expression by flow cytometry, to assess effects on NRF-1 regulated mitochondrial biogenesis. Flow cytometry analysis was performed as previously described. Another fraction was used for extraction of RNA and subsequent gene expression analysis using quantitative PCR (see below). The last fraction was employed to investigate effects on mitochondrial respiratory function by extracellular flux analysis (described above). The experiment was replicated three times.
Total RNA was extracted from harvested cells (RNAeasy kit Qiagen, Hilden, Germany). The RNA content was quantified on Nanodrop 1000 Spectrophotometer (Thermo Scientific). From 1 μg total RNA, cDNA was synthesized using High-Capacity Reverse Transcription Kit (Applied Biosystems, Carlsbad, Calif., US). Gene quantification was done using TaqMan probes for gene expression assays (Applied Biosystems). Probes used were: PGC1α (PPARG coactivator 1α), Hs00173304_m1; HIF1α (hypoxia inducible factor 1α), Hs00153153_m1; PDK1 (pyruvate dehydrogenase kinase 1), Hs01561847_m1; PDK4, (pyruvate dehydrogenase kinase 4), Hs01037712_m1; SIRT4 (sirtuin 4) Hs01015516_g1; ACOX1 (acyl-CoA oxidase 1) Hs01074241_m1; as reference genes, we used; Eukaryotic 18S rRNA Hs99999901_s1; actin beta Hs99999903_m1. Fold change was calculated as geometric mean of ΔΔCt of the two reference genes.

[6] = Mildronate-induced fatty liver, liver triacylglycerol; type: in vivo; details: C57BL/6 mice; Mildronate 550 mg/kg body weight in low-fat diet; 3 weeks
Experimental: C57BL/6 mice were divided in 4 groups of 10 mice and fed a control low-fat diet, low-fat diets with TTA (720 mg/kg body weight), Mildronate (550 mg/kg body weight) or a combination of these two treatments for 3 weeks (n=10). At sacrifice, liver samples were collected, lipids were extracted, and triacylglycerol (TAG) measured on the Hitachi 917 system (Roche Diagnostics, GmbH, Mannheim, Germany) using a kit from Roche Diagnostics.

[7] = system: SH-SY5Y cells; experiment: GC-MS analysis of TTA in cell medium and SH-SY5Y cells; type: in vitro ADME
Experimental: The GC-MS analysis was performed on treated SH-SY5Y cells and its medium prior and after treatment of TTA complexed with FBS. The technical work and analysis were performed by Pavol Bohov.
Total medium and cellular FA composition were analyzed by […] after preparation of FA methyl esters from total lipids by heating with a 1:1 mixture of methanol and toluene at 90° C. for 1 hour using sulfuric acid as a catalyst. Gas chromatograph Trace GC Ultra (Finnigan, USA) was equipped with a programmable temperature vaporization injector, flame-ionization detector, AS 2000 autosampler and with a fused silica capillary column coated with dimethylpolysiloxane stationary phase (J & W Scientific, USA). Hydrogen was used as a carrier gas. The column temperature was programmed from 110° C. to 310° C. with a gradient of 2.5° C./min.
The GC signal was acquired and evaluated with Chromeleon software version 6.80 (Dionex, USA). Peaks were identified by means of known FA standards and by means of mass spectra, obtained by GC-MS analysis (GCQ MS Detector, Finnigan, USA) on the same column.
The quantification of the FAs was based on the areas of the chromatographic peaks which were measured electronically. Subsequently, the areas were converted to weight units based on the known amount of the internal standard C21:0 which had been added to the sample. The response of the analytical procedure was determined with a mixture of pure standards (Sigma-Aldrich, USA; Supelco, USA; Larodan Fine Chemicals, Sweden).

[8] = inside SH-SY5Y cells after 24 hours

Compound: NC(=O)c1ncn([C@@H]2O[C@H](CO)[C@@H](O)[C@H]2O)c1N [AICAR, 5-aminoimidazole-4-carboxamide-1-β-D-ribofuranoside, reference compound]
- basal respiratory rate (OCR) [1]: little or no effect
- resazurin conversion [2]: moderate reduction
- GFP intensity (NRF1 reporter) [3]: significant increase
- basal respiratory rate [4]: without affecting the basal respiratory rate
- uncoupled respiratory capacity (CCCP) [4]: only increased in the AICAR-treated cells
- PGC1α expression [5]: reduced PGC1α expression

- increase in liver triacylglycerol (TAG) [6]: 7 fold
Compound: C[N+](C)(C)NCCC(=O)[O-] [Mildronate, 3-(2,2,2-trimethylhydrazinium)propionate]

- Medium 24 h, weight percent of total FA ([7]; cell medium after 24 hours): (0.18%)
- Medium 24 h, concentration ([7]; cell medium after 24 hours incubation with SH-SY5Y cells): 0.53 µM
- Cells 24 h, concentration [7, 8]: 0.017 µM
- Cells 24 h, weight percent of total FA [7, 8]: (0.19%)
Compound: CCCCCCCC=CCCCCCSCC(=O)O [TTA: 1n-8]
